Measured values reported in ChEMBL document CHEMBL1201862, “PubChem BioAssay data set” (2004).
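How tested: cells in 96-well plates exposed to compound for 48 hours at five concentrations. The concentration for 50% growth inhibition is given as GI50.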 Active and inactive are the calls of the source. Cut-off read from the data, not from the text of the source: active = GI50 up to about 1.1 µM and inactive = higher.

Key:
Test in all cases: inhibition of tumour cell growth, NCI panel, 48 h
[1] = tested on: SN12C
[2] = tested on: SK-MEL-5
[3] = tested on: DU-145
[4] = tested on: HCT-15
[5] = tested on: NCI-H522
[6] = tested on: SR
[7] = tested on: HOP-92
[8] = tested on: NCI-H226
[9] = tested on: K562
[10] = tested on: OVCAR-3
[11] = tested on: ACHN
[12] = tested on: EKVX
[13] = tested on: IGROV-1
[14] = tested on: SK-MEL-28
[15] = tested on: CAKI-1
[16] = tested on: HT-29
[17] = tested on: HCT-116
[18] = tested on: UACC-257
[19] = tested on: RXF 393
[20] = tested on: HCC 2998

| Structure (SMILES) | GI50 [1] | GI50 [2] | GI50 [3] | GI50 [4] [µM] | GI50 [5] | GI50 [6] | GI50 [7] | GI50 [8] | GI50 [9] | GI50 [10] | GI50 [11] | GI50 [12] | GI50 [13] | GI50 [14] | GI50 [15] | GI50 [16] | GI50 [17] | GI50 [18] | GI50 [19] | GI50 [20] |
| --- | --- | --- | --- | --- | --- | --- | --- | --- | --- | --- | --- | --- | --- | --- | --- | --- | --- | --- | --- | --- |
| COC(CN(C(=O)c1ccccc1)C1CCC2(SCCS2)c2[nH]c3ccccc3c21)OC (stereo not given) | 24.2 µM (inactive) | 26 µM (inactive) | 93.3 µM (inactive) | 30.6 | 13.9 µM (inactive) | 30.4 µM (inactive) | 7.24 µM (inactive) | 83.8 µM (inactive) | 14.9 µM (inactive) | 25.8 µM (inactive) | 27.8 µM (inactive) | 19.6 µM (inactive) | 40.6 µM (inactive) | 61.2 µM (inactive) | 21 µM (inactive) | 37.3 µM (inactive) | 32.3 µM (inactive) | 14.4 µM (inactive) | 20.3 µM (inactive) | 30.5 µM (inactive) |
| CC1CCC2C(C)C(=O)OC2C2(C)C(=O)C=CC12 (stereo not given) | > 10 µM (inactive) | > 10 µM (inactive) | > 10 µM (inactive) | > 10 | 2.83 µM (inactive) | 3.61 µM (inactive) | > 10 µM (inactive) | > 10 µM (inactive) | 4.57 µM (inactive) | > 10 µM (inactive) | > 10 µM (inactive) | > 10 µM (inactive) | > 10 µM (inactive) | > 10 µM (inactive) | > 10 µM (inactive) | > 10 µM (inactive) | 7.76 µM (inactive) | > 10 µM (inactive) | > 10 µM (inactive) | > 10 µM (inactive) |
| O=[N+]([O-])C(=C/c1cccc2ccccc12)/C(=C\c1cccc2ccccc12)[N+](=O)[O-] | 2.34 µM (inactive) | 2.9 µM (inactive) | 2.84 µM (inactive) | 1.9 | 1.37 µM (inactive) | 0.955 µM (active) | 1.92 µM (inactive) | 4.85 µM (inactive) | 3.08 µM (inactive) | 4.02 µM (inactive) | 2.13 µM (inactive) | 3.4 µM (inactive) | 1.79 µM (inactive) | 1.83 µM (inactive) | 2.2 µM (inactive) | 2.21 µM (inactive) | 2.49 µM (inactive) | 2.32 µM (inactive) | 1.99 µM (inactive) | 2.42 µM (inactive) |
| CC(C)/C(Cl)=N/OC(=O)Nc1ccc(OC(F)(F)F)cc1 | 16.4 µM (inactive) | 7.14 µM (inactive) | 17.2 µM (inactive) | 6.12 | 1.47 µM (inactive) | 1.94 µM (inactive) | 1.68 µM (inactive) | 11.1 µM (inactive) | 1.76 µM (inactive) | 17.9 µM (inactive) | 12.6 µM (inactive) | 8.17 µM (inactive) | 16.5 µM (inactive) | 13.3 µM (inactive) | 5.2 µM (inactive) | 18.6 µM (inactive) | 6.65 µM (inactive) | 13.7 µM (inactive) | 4.03 µM (inactive) | 16.7 µM (inactive) |
| CCCCCCCCCCCCCCCC(=O)OCC1OC(OC)C(NC(=O)N(CCCl)N=O)C(O)C1O (stereo not given) | 13.4 µM (inactive) | 21.1 µM (inactive) | 19.5 µM (inactive) | 13.1 | 15.9 µM (inactive) | 0.851 µM (active) | 17.4 µM (inactive) | 15.5 µM (inactive) | 10.7 µM (inactive) | 19.6 µM (inactive) | 13.4 µM (inactive) | 31.2 µM (inactive) | 18.1 µM (inactive) | 28.5 µM (inactive) | 14.5 µM (inactive) | 14.5 µM (inactive) | 13 µM (inactive) | 19.7 µM (inactive) | 16.7 µM (inactive) | 18.4 µM (inactive) |
